This passage reports EC50 results from ChEMBL document CHEMBL5360545, “Multitargeted drug design strategy for discovery of short-peptide-based HIV-1 entry inhibitors with high potency” (Eur J Med Chem, 2023).

Side chains are listed from the residue outwards. Peptide text beside a SMILES is read from it. * marks the point of attachment. PEG24 = NCCOCCOCCOCCOCCOCCOCCOCCOCCOCCOCCOCCOCCOCCOCCOCCOCCOCCOCCOCCOCCOCCOCCOCCOCCC(=O)O; X3 = Cc1ccc(N(CCCN2CCN(Cc3ccc(F)cc3)CC2)C(=O)C2CCN(C(=O)COCC(=O)*)CC2)cc1Cl; X1 = CC(=O)N1CCC(C(=O)N(CCCN2CCC(Cc3ccc(C(=O)*)cc3)CC2)c2ccc(C)c(Cl)c2)CC1; PEG12 = NCCOCCOCCOCCOCCOCCOCCOCCOCCOCCOCCOCCOCCC(=O)O; PEG8 = NCCOCCOCCOCCOCCOCCOCCOCCOCCC(=O)O

The test system of this experiment is Human immunodeficiency virus 1. Nature of the experiment: Antiviral activity against HIV-1 Bal-R5 infected in human CEMx174 5.25M7 cells assessed as reduction in p24 antigen level measured after 4 days by ELISA. Format: functional, organism-based. The note with it: Human immunodeficiency virus 1, Bal-R5, CEMx174 5.25M7, 96 h.

For the compound `CC[C@H](C)[C@H](NC(=O)[C@H](CCCCN)NC(=O)[C@H](CCC(N)=O)NC(=O)[C@H](CCC(=O)O)NC(=O)[C@H](Cc1c[nH]c2ccccc12)NC(C)=O)C(=O)N[C@@H](CCC(=O)O)C(=O)N[C@@H](CCC(=O)O)C(=O)N[C@@H](CC(C)C)C(=O)N[C@@H](CC(C)C)C(=O)N[C@@H](CCCCN)C(=O)N[C@@H](CCCCN)C(=O)N[C@@H](C)C(=O)N[C@@H](CCC(=O)O)C(=O)N[C@@H](CCC(=O)O)C(=O)N[C@@H](CCC(N)=O)C(=O)N[C@@H](CCC(N)=O)C(=O)N[C@@H](CCCCN)C(=O)N[C@@H](CCCCN)C(=O)N[C@@H](CC(N)=O)C(=O)N[C@@H](CCC(=O)O)C(=O)N[C@@H](CCC(=O)O)C(=O)N[C@@H](CCC(=O)O)C(=O)N[C@@H](CC(C)C)C(=O)N[C@@H](CCCCN)C(=O)N[C@@H](CCCCN)C(=O)N[C@@H](CC(C)C)C(=O)N[C@@H](CCC(=O)O)C(=O)N[C@@H](CCCCN)C(=O)N[C@@H](CCCCNC(=O)CCOCCOCCOCCOCCOCCOCCOCCOCCOCCOCCOCCOCCOCCOCCOCCOCCOCCOCCOCCOCCOCCOCCOCCOCCNC(=O)c1ccc(CC2CCN(CCCN(C(=O)C3CCN(C(C)=O)CC3)c3ccc(C)c(Cl)c3)CC2)cc1)C(N)=O` (Ac-WEQKIEELLKKAEEQQKKNEEELKKLEKK([PEG24-X1])-NH2), the EC50 stood at 0.12 nM. With `CC[C@H](C)[C@H](NC(=O)[C@H](CCCCN)NC(=O)[C@H](CCC(N)=O)NC(=O)[C@H](CCC(=O)O)NC(=O)[C@H](Cc1c[nH]c2ccccc12)NC(C)=O)C(=O)N[C@@H](CCC(=O)O)C(=O)N[C@@H](CCC(=O)O)C(=O)N[C@@H](CC(C)C)C(=O)N[C@@H](CC(C)C)C(=O)N[C@@H](CCCCN)C(=O)N[C@@H](CCCCN)C(=O)N[C@@H](C)C(=O)N[C@@H](CCC(=O)O)C(=O)N[C@@H](CCC(=O)O)C(=O)N[C@@H](CCC(N)=O)C(=O)N[C@@H](CCC(N)=O)C(=O)N[C@@H](CCCCN)C(=O)N[C@@H](CCCCN)C(=O)N[C@@H](CC(N)=O)C(=O)N[C@@H](CCC(=O)O)C(=O)N[C@@H](CCC(=O)O)C(=O)N[C@@H](CCC(=O)O)C(=O)N[C@@H](CC(C)C)C(=O)N[C@@H](CCCCN)C(=O)N[C@@H](CCCCN)C(=O)N[C@@H](CC(C)C)C(=O)N[C@@H](CCC(=O)O)C(=O)N[C@@H](CCCCN)C(=O)N[C@@H](CCCCNC(=O)CCOCCOCCOCCOCCOCCOCCOCCOCCOCCOCCOCCOCCNC(=O)c1ccc(CC2CCN(CCCN(C(=O)C3CCN(C(C)=O)CC3)c3ccc(C)c(Cl)c3)CC2)cc1)C(N)=O` (Ac-WEQKIEELLKKAEEQQKKNEEELKKLEKK([PEG12-X1])-NH2) the figure was 0.35 nM. Take `CC[C@H](C)[C@H](NC(=O)[C@H](CCCCN)NC(=O)[C@H](CCC(N)=O)NC(=O)[C@H](CCC(=O)O)NC(=O)[C@H](Cc1c[nH]c2ccccc12)NC(C)=O)C(=O)N[C@@H](CCC(=O)O)C(=O)N[C@@H](CCC(=O)O)C(=O)N[C@@H](CC(C)C)C(=O)N[C@@H](CC(C)C)C(=O)N[C@@H](CCCCN)C(=O)N[C@@H](CCCCN)C(=O)N[C@@H](C)C(=O)N[C@@H](CCC(=O)O)C(=O)N[C@@H](CCC(=O)O)C(=O)N[C@@H](CCC(N)=O)C(=O)N[C@@H](CCC(N)=O)C(=O)N[C@@H](CCCCN)C(=O)N[C@@H](CCCCN)C(=O)N[C@@H](CC(N)=O)C(=O)N[C@@H](CCC(=O)O)C(=O)N[C@@H](CCC(=O)O)C(=O)N[C@@H](CCC(=O)O)C(=O)N[C@@H](CC(C)C)C(=O)N[C@@H](CCCCN)C(=O)N[C@@H](CCCCN)C(=O)N[C@@H](CC(C)C)C(=O)N[C@@H](CCC(=O)O)C(=O)N[C@@H](CCCCN)C(=O)N[C@@H](CCCCNC(=O)c1ccc(CC2CCN(CCCN(C(=O)C3CCN(C(C)=O)CC3)c3ccc(C)c(Cl)c3)CC2)cc1)C(N)=O` (Ac-WEQKIEELLKKAEEQQKKNEEELKKLEKK(X1)-NH2): the EC50 was found to be 1.75 nM. With Ac-WEQKIEELLKKAEEQQKKNEEELKKLEK-NH2, the EC50 turned out to be 2.45 nM. `CC[C@H](C)[C@H](NC(C)=O)C(=O)N[C@@H](CCC(=O)O)C(=O)N[C@@H](CCC(=O)O)C(=O)N[C@@H](CC(C)C)C(=O)N[C@H](C(=O)N[C@@H](CCCNC(=N)N)C(=O)N[C@@H](C)C(=O)N[C@@H](C)C(=O)N[C@@H](CCC(N)=O)C(=O)N[C@@H](CCC(=O)O)C(=O)N[C@@H](CCC(N)=O)C(=O)N[C@@H](CCC(N)=O)C(=O)N[C@@H](CCCNC(=N)N)C(=O)N[C@@H](CCCCN)C(=O)N[C@@H](CC(N)=O)C(=O)N[C@@H](CCC(=O)O)C(=O)N[C@@H](CCC(=O)O)C(=O)N[C@@H](C)C(=O)N[C@@H](CC(C)C)C(=O)N[C@@H](CCCNC(=N)N)C(=O)N[C@@H](CCC(=O)O)C(=O)N[C@@H](CC(C)C)C(=O)N[C@@H](CCCCNC(=O)CCOCCOCCOCCOCCOCCOCCOCCOCCOCCOCCOCCOCCOCCOCCOCCOCCOCCOCCOCCOCCOCCOCCOCCOCCNC(=O)c1ccc(CC2CCN(CCCN(C(=O)C3CCN(C(C)=O)CC3)c3ccc(C)c(Cl)c3)CC2)cc1)C(N)=O)[C@@H](C)CC` (Ac-IEELIRAAQEQQRKNEEALRELK([PEG24-X1])-NH2): the EC50 turned out to be 0.26 nM. Take `CC[C@H](C)[C@H](NC(C)=O)C(=O)N[C@@H](CCC(=O)O)C(=O)N[C@@H](CCC(=O)O)C(=O)N[C@@H](CC(C)C)C(=O)N[C@H](C(=O)N[C@@H](CCCNC(=N)N)C(=O)N[C@@H](C)C(=O)N[C@@H](C)C(=O)N[C@@H](CCC(N)=O)C(=O)N[C@@H](CCC(=O)O)C(=O)N[C@@H](CCC(N)=O)C(=O)N[C@@H](CCC(N)=O)C(=O)N[C@@H](CCCNC(=N)N)C(=O)N[C@@H](CCCCN)C(=O)N[C@@H](CC(N)=O)C(=O)N[C@@H](CCC(=O)O)C(=O)N[C@@H](CCC(=O)O)C(=O)N[C@@H](C)C(=O)N[C@@H](CC(C)C)C(=O)N[C@@H](CCCNC(=N)N)C(=O)N[C@@H](CCC(=O)O)C(=O)N[C@@H](CC(C)C)C(=O)N[C@@H](CCCCNC(=O)CCOCCOCCOCCOCCOCCOCCOCCOCCOCCOCCOCCOCCNC(=O)COCC(=O)N1CCC(C(=O)N(CCCN2CCN(Cc3ccc(F)cc3)CC2)c2ccc(C)c(Cl)c2)CC1)C(N)=O)[C@@H](C)CC` (Ac-IEELIRAAQEQQRKNEEALRELK([PEG12-X3])-NH2): the EC50 is 6.26 nM.

Regarding `CC[C@H](C)[C@H](NC(=O)[C@H](CCCCN)NC(=O)[C@H](CCC(N)=O)NC(=O)[C@H](CCC(=O)O)NC(=O)[C@H](Cc1c[nH]c2ccccc12)NC(C)=O)C(=O)N[C@@H](CCC(=O)O)C(=O)N[C@@H](CCC(=O)O)C(=O)N[C@@H](CC(C)C)C(=O)N[C@@H](CC(C)C)C(=O)N[C@@H](CCCCN)C(=O)N[C@@H](CCCCN)C(=O)N[C@@H](C)C(=O)N[C@@H](CCC(=O)O)C(=O)N[C@@H](CCC(=O)O)C(=O)N[C@@H](CCC(N)=O)C(=O)N[C@@H](CCC(N)=O)C(=O)N[C@@H](CCCCN)C(=O)N[C@@H](CCCCN)C(=O)N[C@@H](CC(N)=O)C(=O)N[C@@H](CCC(=O)O)C(=O)N[C@@H](CCC(=O)O)C(=O)N[C@@H](CCC(=O)O)C(=O)N[C@@H](CC(C)C)C(=O)N[C@@H](CCCCN)C(=O)N[C@@H](CCCCN)C(=O)N[C@@H](CC(C)C)C(=O)N[C@@H](CCC(=O)O)C(=O)N[C@@H](CCCCN)C(=O)N[C@@H](CCCCNC(=O)CCOCCOCCOCCOCCOCCOCCOCCOCCNC(=O)c1ccc(CC2CCN(CCCN(C(=O)C3CCN(C(C)=O)CC3)c3ccc(C)c(Cl)c3)CC2)cc1)C(N)=O` (Ac-WEQKIEELLKKAEEQQKKNEEELKKLEKK([PEG8-X1])-NH2), the EC50 came to 1.52 nM.
